Values quoted from earlier work as cited in US20240285546A1, “TRANSDERMAL THERAPEUTIC SYSTEM CONTAINING AGOMELATINE” (LTS LOHMANN Therapie-Systeme AG, priority 2019, published 2024).

Legend:
[1] = not given; remark: listed apart in the source

COc1ccc2cccc(CCNC(C)=O)c2c1 [agomelatine, N-(2-(7-Methoxy-1-naphthyl)ethyl)acetamide]
Volume of distribution (in steady state): 35 L | Oral absorption (oral agomelatine): > 80% | Overall bioavailability (oral agomelatine): less than 5% | Increase in agomelatine exposure (AUC and cmax) (patients with moderate hepatic impairment compared to healthy subjects): up to 140 fold | Solubility in water [1]: poorly soluble
